The values below come from US20260325533A1, “CDK INHIBITOR COMPOUNDS” (ALEKSIA THERAPEUTICS, INC., priority 2023, published 2026).

Assay type in all cases: biochemical
For one experiment, the target named is CDK2/CCNE1 (Homo sapiens, UniProt P24941). Kind of experiment: CDK2 homogeneous time-resolved fluorescence (HTRF) kinase assay. As to conditions: CDK2/CCNE. In short, it runs like this: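 Compounds were titrated 11-point, half-log from typically 10 μM against 3 nM CDK2/cyclin E1 at 1 mM ATP, with a 20 min enzyme preincubation. Phosphorylation of 50 nM ULight-4E-BP1 peptide over 60 min at 23 °C was detected by europium anti-phospho antibody TR-FRET.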

A further experiment addresses CDK6/CCND1 (Homo sapiens, UniProt Q00534). In words: CDK6 homogeneous time-resolved fluorescence (HTRF) kinase assay. As to conditions: CDK6/CCND. In outline:
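Enzyme pre-incubated 20 min at 23 °C with compound, then reacted 60 min at 23 °C with 1 mM ATP and 50 nM ULight-4E-BP1 (Thr37/46) peptide; 1 nM enzyme, 1% DMSO. EDTA-stopped, Eu-anti-phospho antibody TR-FRET read (665 nm or 665/615 ratio); 11-point half-log titration from 10 μM gave IC50.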

The target in the next experiment is CDK4/CCND3 (Homo sapiens, UniProt P11802). Kind of experiment: CDK4 homogeneous time-resolved fluorescence (HTRF) kinase assay. As to conditions: CDK4/CCND. In outline: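 Steps: compound plus 1.5 nM CDK4/CCND3, 20 min, 23 °C; add 1 mM ATP and 50 nM ULight-4E-BP1 (Thr37/46) peptide, 60 min; stop with 10 mM EDTA; add 2 nM Eu anti-phospho antibody, 60 min; read 665 nm. IC50 from 11-point half-log series starting 10 μM.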
For orientation: In TR-FRET formats the signal depends on donor and acceptor labels being close together.

The target of another experiment is CDK1/CCNB1 (Homo sapiens, UniProt P06493). In words: CDK1 homogeneous time-resolved fluorescence (HTRF) kinase assay. As to conditions: CDK1/CCNB. In short, it runs like this: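 HTRF assay with 0.5 nM CDK1/CCNB1, 1 mM ATP, 50 nM ULight-eIF4E-BP1 (Thr37/46) peptide; compound preincubated 20 min, reaction 60 min at 23 °C, EDTA stop, Eu-anti-phospho antibody detection. 11-point half-log titration from 10 μM, 1% DMSO; IC50 from 665 nm or 665/615 signal.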

Setting [1] is: x = IC50 <25 nM, read-out: CDK2/CCNE IC50 (<25 nM).
Setting [2] is: x = IC50 >250 nM, read-out: CDK6/CCND IC50 (>250 nM column).
Setting [3] is: x = IC50 25-250 nM, read-out: CDK4/CCND IC50 (25-250 nM).
Where [4] appears, read: x = IC50 25-250 nM, read-out: CDK1/CCNB IC50 (25-250 nM).
[5] abbreviates: x = IC50 >250 nM, read-out: CDK4/CCND IC50 (>250 nM column).
Where [6] appears, read: x = IC50 25-250 nM, read-out: CDK2/CCNE IC50 (25-250 nM).
[7] abbreviates: x = IC50 >250 nM, read-out: CDK1/CCNB IC50 (>250 nM column).

Read-outs that look alike come from different tables or passages of the source.

CDK1/CCNB1, sequence (P06493 whole entry): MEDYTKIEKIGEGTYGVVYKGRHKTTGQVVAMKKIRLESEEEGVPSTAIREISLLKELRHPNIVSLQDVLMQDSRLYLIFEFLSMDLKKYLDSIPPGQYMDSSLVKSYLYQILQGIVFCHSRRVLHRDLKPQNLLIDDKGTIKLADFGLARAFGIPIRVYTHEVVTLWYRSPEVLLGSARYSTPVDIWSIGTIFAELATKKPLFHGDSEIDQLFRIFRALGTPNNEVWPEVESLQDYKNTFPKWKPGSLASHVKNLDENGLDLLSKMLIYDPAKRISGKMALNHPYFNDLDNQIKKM
CDK1/CCNB1, sequence (P14635 whole entry partner): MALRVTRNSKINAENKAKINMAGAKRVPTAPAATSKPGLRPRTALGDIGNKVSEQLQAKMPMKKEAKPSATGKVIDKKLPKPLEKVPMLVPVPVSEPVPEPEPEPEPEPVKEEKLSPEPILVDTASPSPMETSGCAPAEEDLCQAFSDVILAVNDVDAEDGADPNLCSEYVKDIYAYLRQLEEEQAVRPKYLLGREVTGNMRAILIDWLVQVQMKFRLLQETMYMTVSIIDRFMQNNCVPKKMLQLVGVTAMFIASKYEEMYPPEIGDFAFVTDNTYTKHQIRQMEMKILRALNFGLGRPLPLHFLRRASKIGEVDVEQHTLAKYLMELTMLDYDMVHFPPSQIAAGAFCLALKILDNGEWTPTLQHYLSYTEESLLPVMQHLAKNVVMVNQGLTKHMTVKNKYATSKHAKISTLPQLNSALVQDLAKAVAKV
CDK6/CCND1, sequence (Q00534 whole entry): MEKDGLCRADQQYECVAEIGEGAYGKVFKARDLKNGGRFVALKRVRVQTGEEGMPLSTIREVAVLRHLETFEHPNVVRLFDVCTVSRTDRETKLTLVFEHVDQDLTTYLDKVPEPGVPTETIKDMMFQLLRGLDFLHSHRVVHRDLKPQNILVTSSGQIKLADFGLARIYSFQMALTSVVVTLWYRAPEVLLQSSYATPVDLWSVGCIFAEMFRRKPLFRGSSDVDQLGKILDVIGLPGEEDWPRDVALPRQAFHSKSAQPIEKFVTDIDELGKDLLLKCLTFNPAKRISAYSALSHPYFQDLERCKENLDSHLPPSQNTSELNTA
CDK6/CCND1, sequence (P24385 whole entry partner): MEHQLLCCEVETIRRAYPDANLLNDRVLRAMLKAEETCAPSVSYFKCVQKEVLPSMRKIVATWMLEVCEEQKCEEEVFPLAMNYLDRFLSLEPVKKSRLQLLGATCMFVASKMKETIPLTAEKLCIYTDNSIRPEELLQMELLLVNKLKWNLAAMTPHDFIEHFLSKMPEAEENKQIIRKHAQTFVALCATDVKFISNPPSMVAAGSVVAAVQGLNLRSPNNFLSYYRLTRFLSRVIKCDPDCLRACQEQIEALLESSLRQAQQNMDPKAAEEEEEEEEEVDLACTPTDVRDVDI
CDK4/CCND3, sequence (P11802 whole entry): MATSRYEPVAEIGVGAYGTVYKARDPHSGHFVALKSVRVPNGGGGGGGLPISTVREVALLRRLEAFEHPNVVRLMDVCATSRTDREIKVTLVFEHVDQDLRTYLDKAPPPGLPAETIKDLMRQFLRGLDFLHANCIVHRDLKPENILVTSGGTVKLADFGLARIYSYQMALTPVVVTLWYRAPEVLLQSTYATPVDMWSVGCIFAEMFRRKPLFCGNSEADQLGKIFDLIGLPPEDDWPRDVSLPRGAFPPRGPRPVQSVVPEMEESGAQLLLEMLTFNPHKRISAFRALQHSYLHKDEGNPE
CDK4/CCND3, sequence (P30281 whole entry partner): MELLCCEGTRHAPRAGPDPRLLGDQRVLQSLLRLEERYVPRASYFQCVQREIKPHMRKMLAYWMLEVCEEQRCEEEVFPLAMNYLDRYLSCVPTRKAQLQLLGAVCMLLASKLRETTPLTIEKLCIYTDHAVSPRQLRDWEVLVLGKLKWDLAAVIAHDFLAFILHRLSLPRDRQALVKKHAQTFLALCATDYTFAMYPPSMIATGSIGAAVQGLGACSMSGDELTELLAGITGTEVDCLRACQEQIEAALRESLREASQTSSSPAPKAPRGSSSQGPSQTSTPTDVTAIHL

On to `CC1(C)C(=O)Nc2cc(C#Cc3nccc4cnc(Nc5ccc(S(=O)(=O)C6CC6)cc5)cc34)ccc21` [Ex 444, 6-((7-((4-(cyclopropylsulfonyl)phenyl)amino)-2,6-naphthyridin-1-yl)ethynyl)-3,3-dimethylindolin-2-one], for which the IC50 on CDK2/CCNE1 (setting [1]) was below 25 nM; at CDK6/CCND1 (setting [2]), above 250 nM; on CDK4/CCND3 (setting [3]) it was 25 to 250 nM; on CDK1/CCNB1 (x = IC50 <25 nM, read-out: CDK1/CCNB IC50 (<25 nM)) it was below 25 nM.

Consider `CS(=O)(=O)c1ccc(Nc2cc3c(C#Cc4ccc5c(c4)NC(=O)C54CC4)nccc3cn2)cc1` [Ex 445, 6'-((7-((4-(methylsulfonyl)phenyl)amino)-2,6-naphthyridin-1-yl)ethynyl)spiro[cyclopropane-1,3'-indolin]-2'-one], for which the IC50 at CDK2/CCNE1 (setting [1]) was below 25 nM; on CDK6/CCND1 (x = IC50 25-250 nM, read-out: CDK6/CCND IC50 (25-250 nM)), 25 to 250 nM; at CDK4/CCND3 (setting [3]), 25 to 250 nM; on CDK1/CCNB1 (setting [4]), 25 to 250 nM.

Turning to `CCNS(=O)(=O)c1ccc(Nc2cc3c(C#Cc4cccnc4N)nccc3cn2)cc1` [Ex 447, 4-((5-((2-aminopyridin-3-yl)ethynyl)-2,6-naphthyridin-3-yl)amino)-N-ethylbenzenesulfonamide], the IC50 is below 25 nM at CDK2/CCNE1 (setting [1]), above 250 nM at CDK6/CCND1 (setting [2]), 25 to 250 nM on CDK4/CCND3 (setting [3]) and 25 to 250 nM on CDK1/CCNB1 (setting [4]).

With `Cc1cc(S(N)(=O)=O)ccc1Nc1cc2c(C#Cc3cccnc3N)nccc2cn1` [Ex 448, 4-((5-((2-aminopyridin-3-yl)ethynyl)-2,6-naphthyridin-3-yl)amino)-3-methylbenzenesulfonamide], the IC50 on CDK2/CCNE1 (setting [1]) was below 25 nM; on CDK6/CCND1 (setting [2]), above 250 nM; at CDK4/CCND3 (setting [5]) it was above 250 nM; at CDK1/CCNB1 (setting [4]) it was 25 to 250 nM.

As to `Cn1cc(NS(=O)(=O)c2ccc(Nc3cc4c(C#Cc5cccnc5N)nccc4cn3)cc2)cn1` [Ex 450, 4-((5-((2-aminopyridin-3-yl)ethynyl)-2,6-naphthyridin-3-yl)amino)-N-(1-methyl-1H-pyrazol-4-yl)benzenesulfonamide], the IC50 on CDK2/CCNE1 (setting [6]) is 25 to 250 nM; at CDK6/CCND1 (setting [2]) it was above 250 nM; on CDK4/CCND3 (setting [5]) it was above 250 nM; at CDK1/CCNB1 (setting [7]), above 250 nM.

Regarding `CC1(C)C(=O)Nc2cc(C#Cc3nccc4cnc(Nc5ccc(S(=O)(=O)NC6CCC6)cc5)cc34)ccc21` [Ex 457, N-cyclobutyl-4-((5-((3,3-dimethyl-2-oxoindolin-6-yl)ethynyl)-2,6-naphthyridin-3-yl)amino)benzenesulfonamide], the IC50 on CDK2/CCNE1 (setting [1]) is below 25 nM; at CDK6/CCND1 (setting [2]) it was above 250 nM; on CDK4/CCND3 (setting [5]), above 250 nM; at CDK1/CCNB1 (setting [4]), 25 to 250 nM.

Turning to `CC(C)S(=O)(=O)c1ccc(Nc2cc3c(C#Cc4ccc5c(c4)NC(=O)C5(C)C)nccc3cn2)cc1` [Ex 458, 6-((7-((4-(isopropylsulfonyl)phenyl)amino)-2,6-naphthyridin-1-yl)ethynyl)-3,3-dimethylindolin-2-one], the IC50 is below 25 nM at CDK2/CCNE1 (setting [1]), above 250 nM on CDK6/CCND1 (setting [2]), above 250 nM on CDK4/CCND3 (setting [5]) and 25 to 250 nM on CDK1/CCNB1 (setting [4]).

Turning to `CCS(=O)(=O)c1ccc(Nc2cc3c(C#Cc4ccc5c(c4)NC(=O)C5(C)C)nccc3cn2)cc1` [Ex 459, 6-((7-((4-(ethylsulfonyl)phenyl)amino)-2,6-naphthyridin-1-yl)ethynyl)-3,3-dimethylindolin-2-one], the IC50 on CDK2/CCNE1 (setting [1]) was below 25 nM; at CDK6/CCND1 (setting [2]), above 250 nM; at CDK4/CCND3 (setting [3]), 25 to 250 nM; at CDK1/CCNB1 (setting [4]) it was 25 to 250 nM.

Consider `CS(=O)(=O)c1ccc(Nc2cc3c(C#Cc4ccc5c(c4)NC(=O)C54CCC4)nccc3cn2)cc1` [Ex 460, 6'-((7-((4-(methylsulfonyl)phenyl)amino)-2,6-naphthyridin-1-yl)ethynyl)spiro[cyclobutane-1,3'-indolin]-2'-one], for which the IC50 at CDK2/CCNE1 (setting [1]) is below 25 nM; at CDK6/CCND1 (setting [2]) it was above 250 nM; at CDK4/CCND3 (setting [5]), above 250 nM; at CDK1/CCNB1 (setting [7]), above 250 nM.

As for `CCC1(CC)C(=O)Nc2cc(C#Cc3nccc4cnc(Nc5ccc(S(C)(=O)=O)cc5)cc34)ccc21` [Ex 461, 3,3-diethyl-6-((7-((4-(methylsulfonyl)phenyl)amino)-2,6-naphthyridin-1-yl)ethynyl)indolin-2-one], the IC50 on CDK2/CCNE1 (setting [1]) was below 25 nM; at CDK6/CCND1 (setting [2]) it was above 250 nM; at CDK4/CCND3 (setting [5]) it was above 250 nM; at CDK1/CCNB1 (setting [7]), above 250 nM.

`Nc1ncccc1C#Cc1nccc2cnc(Nc3ccc(S(N)(=O)=O)cc3F)cc12` [Ex 466, 4-((5-((2-aminopyridin-3-yl)ethynyl)-2,6-naphthyridin-3-yl)amino)-3-fluorobenzenesulfonamide]: the IC50 at CDK2/CCNE1 (setting [1]) is below 25 nM; at CDK6/CCND1 (setting [2]), above 250 nM; on CDK4/CCND3 (setting [5]) it was above 250 nM; at CDK1/CCNB1 (setting [7]), above 250 nM.

Consider `CNS(=O)(=O)c1ccc(Nc2cc3c(C#Cc4cccnc4N)nccc3cn2)c(F)c1` [Ex 467, 4-((5-((2-aminopyridin-3-yl)ethynyl)-2,6-naphthyridin-3-yl)amino)-3-fluoro-N-methylbenzenesulfonamide], for which the IC50 on CDK2/CCNE1 (setting [1]) is below 25 nM; on CDK6/CCND1 (setting [2]), above 250 nM; on CDK4/CCND3 (setting [5]), above 250 nM; on CDK1/CCNB1 (setting [4]), 25 to 250 nM.

`Nc1ncccc1C#Cc1nccc2cnc(Nc3ccc(S(=O)(=O)Nc4nccc(N5CCNCC5)n4)cc3)cc12` [Ex 468, 4-((5-((2-aminopyridin-3-yl)ethynyl)-2,6-naphthyridin-3-yl)amino)-N-(4-(piperazin-1-yl)pyrimidin-2-yl)benzenesulfonamide]: the IC50 at CDK2/CCNE1 (setting [6]) is 25 to 250 nM; at CDK6/CCND1 (setting [2]), above 250 nM; at CDK4/CCND3 (setting [5]) it was above 250 nM; on CDK1/CCNB1 (setting [7]) it was above 250 nM.

For the compound `CNS(=O)(=O)c1ccc(Nc2cc3c(C#Cc4cccnc4N)nccc3cn2)cc1` [Ex 469, 4-((5-((2-aminopyridin-3-yl)ethynyl)-2,6-naphthyridin-3-yl)amino)-N-methylbenzenesulfonamide], the IC50 on CDK2/CCNE1 (setting [1]) is below 25 nM; at CDK6/CCND1 (setting [2]), above 250 nM; at CDK4/CCND3 (setting [3]), 25 to 250 nM; on CDK1/CCNB1 (setting [4]) it was 25 to 250 nM.

As for `CS(=O)(=O)c1ccc(Nc2cc3c(C#Cc4cnn5ccccc45)nccc3cn2)cc1` [Ex 478, N-(4-(methylsulfonyl)phenyl)-5-(pyrazolo[1,5-a]pyridin-3-ylethynyl)-2,6-naphthyridin-3-amine], the IC50 was 25 to 250 nM at CDK2/CCNE1 (setting [6]), above 250 nM on CDK6/CCND1 (setting [2]), above 250 nM on CDK4/CCND3 (setting [5]) and above 250 nM on CDK1/CCNB1 (setting [7]).

Consider `CC1(C)C(=O)Nc2cc(C#Cc3nccc4cnc(Nc5ccc(S(C)(=O)=O)cc5)cc34)ccc21` [Ex 486, 3,3-dimethyl-6-((7-((4-(methylsulfonyl)phenyl)amino)-2,6-naphthyridin-1-yl)ethynyl)indolin-2-one], for which the IC50 at CDK2/CCNE1 (setting [1]) is below 25 nM; on CDK6/CCND1 (setting [2]), above 250 nM; at CDK4/CCND3 (setting [3]) it was 25 to 250 nM; on CDK1/CCNB1 (setting [4]), 25 to 250 nM.

As for `CS(=O)(=O)c1ccc(Nc2cc3c(C#Cc4cncnc4N)nccc3cn2)cc1` [Ex 492, 5-((4-aminopyrimidin-5-yl)ethynyl)-N-(4-(methylsulfonyl)phenyl)-2,6-naphthyridin-3-amine], the IC50 is 25 to 250 nM on CDK2/CCNE1 (setting [6]), above 250 nM on CDK6/CCND1 (setting [2]), above 250 nM at CDK4/CCND3 (setting [5]) and above 250 nM on CDK1/CCNB1 (setting [7]).

Take `COC(=O)c1ccc2c(C#Cc3nccc4cnc(Nc5ccc(S(C)(=O)=O)cc5)cc34)n[nH]c2c1` [Ex 498, methyl 3-((7-((4-(methylsulfonyl)phenyl)amino)-2,6-naphthyridin-1-yl)ethynyl)-1H-indazole-6-carboxylate]: the IC50 on CDK2/CCNE1 (x = IC50 >250 nM, read-out: CDK2/CCNE IC50 (>250 nM column)) is above 250 nM; on CDK6/CCND1 (setting [2]), above 250 nM; on CDK4/CCND3 (setting [5]), above 250 nM; at CDK1/CCNB1 (setting [7]), above 250 nM.
